From BigSolDB 2.1

O=S(=O)(c1ccc(O)cc1)c1ccccc1O
solubility (mole fraction)
Conditions | in 1,4-dioxane | in 2-butanone | in acetone | in acetonitrile | in ethanol | in ethyl acetate | in isopropanol | in methanol | in n-butanol
278.15 K | 0.0184 | 0.101 | 0.106 | 0.00974 | 0.0655 | 0.0386 | 0.0656 | 0.0569 | 0.0571
280.65 K | 0.0213 | 0.103 | 0.108 | 0.0109 | 0.0672 | 0.0402 | 0.068 | 0.0583 | 0.0584
283.15 K | 0.0242 | 0.105 | 0.11 | 0.0121 | 0.0689 | 0.0415 | 0.0708 | 0.0597 | 0.0597
285.65 K | 0.0272 | 0.107 | 0.112 | 0.0132 | 0.0706 | 0.0432 | 0.074 | 0.0612 | 0.0609
288.15 K | 0.0303 | 0.109 | 0.115 | 0.0144 | 0.0725 | 0.0449 | 0.0767 | 0.0627 | 0.0621
290.65 K | 0.0338 | 0.111 | 0.117 | 0.0156 | 0.0746 | 0.0465 | 0.0798 | 0.0643 | 0.0634
293.15 K | 0.0376 | 0.113 | 0.12 | 0.0169 | 0.0766 | 0.0482 | 0.0825 | 0.0661 | 0.0645
295.65 K | 0.0415 | 0.115 | 0.124 | 0.0179 | 0.0785 | 0.0501 | 0.0857 | 0.0677 | 0.0658
298.15 K | 0.0465 | 0.118 | 0.127 | 0.0192 | 0.0805 | 0.052 | 0.089 | 0.0696 | 0.0671
300.65 K | 0.0514 | 0.12 | 0.13 | 0.0204 | 0.0827 | 0.054 | 0.0925 | 0.0716 | 0.0682
303.15 K | 0.0557 | 0.122 | 0.133 | 0.0219 | 0.085 | 0.0562 | 0.0963 | 0.0739 | 0.0694
305.65 K | 0.0611 | 0.125 | 0.136 | 0.0236 | 0.0872 | 0.0585 | 0.1 | 0.0763 | 0.0707
308.15 K | 0.0664 | 0.127 | 0.139 | 0.0252 | 0.0898 | 0.0609 | 0.104 | 0.0786 | 0.0719
310.65 K | 0.0713 | 0.13 | 0.142 | 0.0271 | 0.0928 | 0.0637 | 0.109 | 0.0809 | 0.0734
313.15 K | 0.077 | 0.134 | 0.146 | 0.0295 | 0.0957 | 0.0669 | 0.113 | 0.0838 | 0.0751
